Results: US9670227B2, “Thienopyrimidine derivatives, a process for their preparation and pharmaceutical compositions containing them” (LES LABORATOIRES SERVIER, priority 2013, dated 2017)
Where two headings read alike, the source gives them in different places.

Columns and labels:
[1] = test system: H929 multiple myeloma tumour line; test: In vitro cytotoxicity, Microculture Tetrazolium Assay; type: cell-based; details: Homo sapiens, NCI-H929, 48 h, H929 cells, 48 hours exposure, read-out: IC50 (μM) MTT H929
Procedure: The cytotoxicity studies were carried out on the H929 multiple myeloma tumour line.
The cells are distributed onto microplates and exposed to the test compounds for 48 hours.

[2] = test system: AMO-1 multiple myeloma cells; test: Quantification of the cleaved form of PARP in vivo (MSD ELISA, tumour lysates); parameters: species or system mice (SCID strain); details: activation factor: cleaved PARP in treated mice / control mice, AMO-1 xenograft in SCID mice, intraveinous or oral routes
How it was run: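 SCID mice bearing subcutaneous AMO-1 xenografts (1.10^7 cells) dosed intravenously or orally 12 to 14 days after grafting. Cleaved PARP in tumour lysates measured by MSD ELISA. Reported as activation factor, the ratio of treated to control cleaved PARP.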

[3] = target: Mcl-1 protein (UniProtKB primary accession number: Q07820) (Homo sapiens, UniProt Q07820); test: Inhibition of Mcl-1 by fluorescence polarisation, Method 1; type: binding; details: read-out: IC50 (M) Mcl-1 FP
Sequence of Mcl-1 protein (Q07820 whole entry): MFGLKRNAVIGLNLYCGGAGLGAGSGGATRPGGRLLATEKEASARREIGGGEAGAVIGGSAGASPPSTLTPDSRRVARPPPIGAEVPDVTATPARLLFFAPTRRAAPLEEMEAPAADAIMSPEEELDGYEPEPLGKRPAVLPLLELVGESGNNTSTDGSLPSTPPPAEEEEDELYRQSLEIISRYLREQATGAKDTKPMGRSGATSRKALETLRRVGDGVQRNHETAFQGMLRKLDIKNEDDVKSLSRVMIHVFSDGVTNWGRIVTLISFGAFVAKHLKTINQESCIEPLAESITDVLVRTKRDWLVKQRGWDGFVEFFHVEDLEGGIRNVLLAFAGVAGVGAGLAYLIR
How it was run: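 Binding was measured as fluorescence polarisation of a fluorescein-labelled ligand (1 nM) displaced from Mcl-1 (5 nM), both final. Compounds ran as 11-point series with final DMSO at 5%.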

[4] = fluorescence polarisation test, Method 1, or Method 2 where the value is underlined (underlining not visible)

| SMILES | IC50 ([1]; MTT) [µM] | PARP fold [2] [fold] | IC50 ([3]; fluorescence polarisation, Method 1, or Method 2) [M] | IC50 ([1]; cell viability) [µM] | IC50 [3, 4] [M] |
| --- | --- | --- | --- | --- | --- |
| COCCOC(=O)C(Cc1ccccc1OCc1ccnc(-c2ccccc2OC)n1)Oc1ncnc2sc(-c3ccc(F)cc3)c(-c3ccc(OCCN4CCN(C)CC4)c(Cl)c3C)c12 [Example 789, 2-methoxyethyl (2R)-2-{[(5Sa)-5-{3-chloro-2-methyl-4-[2-(4-methylpiperazin-1-yl)ethoxy]phenyl}-6-(4-fluorophenyl)thieno[2,3-d]pyrimidin-4-yl]oxy}-3-(2-{[2-(2-methoxyphenyl)pyrimidin-4-yl]methoxy}phenyl)propanoate] | 0.206 | 135.2 | 3.82e-07 | – | – |
| COc1ccccc1-c1nccc(COc2ccccc2CC(Oc2ncnc3sc(-c4ccc(F)cc4)c(-c4ccc(OCCN5CCN(C)CC5)c(Cl)c4C)c23)C(=O)OCC(F)(F)F)n1 [Example 808, 2,2,2-trifluoroethyl (2R)-2-{[(5Sa)-5-{3-chloro-2-methyl-4-[2-(4-methylpiperazin-1-yl)ethoxy]phenyl}-6-(4-fluorophenyl)thieno[2,3-d]pyrimidin-4-yl]oxy}-3-(2-{[2-(2-methoxyphenyl)pyrimidin-4-yl]methoxy}phenyl)propanoate] | – | 155 | – | 0.01 | 1.72e-07 |
| COc1ccccc1-c1nccc(COc2ccccc2CC(Oc2ncnc3sc(-c4ccc(F)cc4)c(-c4ccc(OCCN5CCN(C)CC5)c(Cl)c4C)c23)C(=O)OCOC(=O)C(C)(C)C)n1 [Example 810, {[(2R)-2-{[(5Sa)-5-{3-chloro-2-methyl-4-[2-(4-methylpiperazin-1-yl)ethoxy]phenyl}-6-(4-fluorophenyl)thieno[2,3-d]pyrimidin-4-yl]oxy}-3-(2-{[2-(2-methoxyphenyl)pyrimidin-4-yl]methoxy}phenyl)propanoyl]oxy}methyl 2,2-dimethylpropanoate] | – | 122.4 | – | 0.001 | 4.2e-07 |
| COc1ccccc1-c1nccc(COc2ccccc2CC(Oc2ncnc3sc(-c4ccc(F)cc4)c(-c4ccc(OCCN5CCN(C)CC5)c(Cl)c4C)c23)C(=O)OCc2oc(=O)oc2C)n1 [Example 811, (5-methyl-2-oxo-1,3-dioxol-4-yl)methyl (2R)-2-{[(5Sa)-5-{3-chloro-2-methyl-4-[2-(4-methylpiperazin-1-yl)ethoxy]phenyl}-6-(4-fluorophenyl)thieno[2,3-d]pyrimidin-4-yl]oxy}-3-(2-{[2-(2-methoxyphenyl)pyrimidin-4-yl]methoxy}phenyl)propanoate] | – | 117.6 | – | 0.002 | 8.55e-09 |
| COc1ccccc1-c1nccc(COc2ccccc2CC(Oc2ncnc3sc(-c4ccc(F)cc4)c(-c4ccc(OCCN5CCN(C)CC5)c(Cl)c4C)c23)C(=O)OCC(=O)N(C)C)n1 [Example 812, 2-(dimethylamino)-2-oxoethyl (2R)-2-{[(5Sa)-5-{3-chloro-2-methyl-4-[2-(4-methylpiperazin-1-yl)ethoxy]phenyl}-6-(4-fluorophenyl)thieno[2,3-d]pyrimidin-4-yl]oxy}-3-(2-{[2-(2-methoxyphenyl)pyrimidin-4-yl]methoxy}phenyl)propanoate] | – | 136 | – | 0.103 | 6.51e-07 |
| COCCOCCOC(=O)C(Cc1ccccc1OCc1ccnc(-c2ccccc2OC)n1)Oc1ncnc2sc(-c3ccc(F)cc3)c(-c3ccc(OCCN4CCN(C)CC4)c(Cl)c3C)c12 [Example 814, 2-(2-methoxyethoxy)ethyl (2R)-2-{[(5Sa)-5-{3-chloro-2-methyl-4-[2-(4-methylpiperazin-1-yl)ethoxy]phenyl}-6-(4-fluorophenyl)thieno[2,3-d]pyrimidin-4-yl]oxy}-3-(2-{[2-(2-methoxyphenyl)pyrimidin-4-yl]methoxy}phenyl)propanoate] | – | 118.5 | – | 0.314 | 6.39e-07 |
